Results as given in patent US10105357B2, “Indication of antibiotic drugs for preparation of cancer inhibition pharmaceutical composition” (LAUNX BIOMEDICAL CO., LTD., priority 2014, dated 2018).
Read-outs that look alike come from different tables or passages of the source.

Legend:
[1] = tested on: A375 (Amelanotic Melanoma); test: Cell viability analysis, skin cancer A375; format: cell-based, human; settings: Homo sapiens, A-375, 72 h
[2] = tested on: PC3 (p53−) (Prostate Adenocarcinoma); test: Cell viability analysis, prostate cancer PC3; format: cell-based, human; settings: Homo sapiens, 72 h
[3] = tested on: AGS (Gastric Adenocarcinoma); test: Cell viability analysis, gastric cancer AGS; format: cell-based, human; settings: Homo sapiens, 72 h
[4] = tested on: TSGH-8301 (Urinary Bladder Carcinoma); test: Cell viability analysis, bladder cancer TSGH-8301; format: cell-based, human; settings: Homo sapiens, 72 h
[5] = tested on: MKN-45 (Gastric Adenocarcinoma); test: Cell viability analysis, gastric cancer MKN-45; format: cell-based, human; settings: Homo sapiens, MKN-45, 72 h
[6] = tested on: HepG2 (Hepatocellular Carcinoma); test: Cell viability analysis, hepatic cancer HepG2; format: cell-based, human; settings: Homo sapiens, HepG2, 72 h
[7] = tested on: HeLa (Cervix Adenocarcinoma); test: Cell viability analysis, cervical cancer HeLa; format: cell-based, human; settings: Homo sapiens, HeLa, 72 h
[8] = tested on: A549 (Lung Adenocarcinoma); test: Cell viability analysis, lung cancer A549; format: cell-based, human; settings: Homo sapiens, A549, 72 h
[9] = tested on: cancer cell lines; test: Cell viability analysis (WST-1) on cancer cell lines; format: cell-based, human; settings: drug 10 μM, 72 hours, WST-1; Table 3
[10] = tested on: LoVo (Colorectal Adenocarcinoma); test: Cell viability analysis, colon cancer LoVo; format: cell-based, human; settings: Homo sapiens, LoVo, 72 h, read-out: cell viability (survival rate), LoVo, drug 10 μM, 72 hours, WST-1, OD450 nm
[11] = tested on: HL-60 (Acute Promyelocytic Leukemia); test: Cell viability analysis, leukemia HL-60; format: cell-based, human; settings: Homo sapiens, HL-60, 72 h
[12] = tested on: HI650 (Lung Adenocarcinoma); test: Cell viability analysis, lung cancer HI650; format: cell-based, human; settings: Homo sapiens, NCI-H1650, 72 h
[13] = tested on: HCT116 (p53+) (Colorectal Carcinoma); test: cells; settings: Homo sapiens, HCT-116, 72 h, read-out: cell viability (survival rate), HCT116
[14] = tested on: MCF7 (Mammary Gland, Adenocarcinoma); test: Cell viability analysis, breast cancer MCF7; format: cell-based, human; settings: Homo sapiens, MCF7, 72 h
[15] = read-out: cell viability (survival rate), A375, drug 10 μM, 72 hours, WST-1, OD450 nm
[16] = read-out: cell viability (survival rate), PC3, drug 10 μM, 72 hours, WST-1, OD450 nm
[17] = read-out: cell viability (survival rate), AGS, drug 10 μM, 72 hours, WST-1, OD450 nm
[18] = read-out: cell viability (survival rate), TSGH, drug 10 μM, 72 hours, WST-1, OD450 nm
[19] = read-out: cell viability (survival rate), MKN-45, drug 10 μM, 72 hours, WST-1, OD450 nm
[20] = read-out: cell viability (survival rate), HepG2, drug 10 μM, 72 hours, WST-1, OD450 nm
[21] = read-out: cell viability (survival rate), HeLa, drug 10 μM, 72 hours, WST-1, OD450 nm
[22] = read-out: cell viability (survival rate), A549, drug 10 μM, 72 hours, WST-1, OD450 nm
[23] = read-out: cell viability (survival rate), HL-60, drug 10 μM, 72 hours, WST-1, OD450 nm
[24] = read-out: cell viability (survival rate), H1650, drug 10 μM, 72 hours, WST-1, OD450 nm
[25] = read-out: cell viability (survival rate), MCF7, drug 10 μM, 72 hours, WST-1, OD450 nm

| SMILES | viability at 10 µM [1, 15] | viability at 10 µM [2, 16] | viability at 10 µM [3, 17] | viability at 10 µM [4, 18] | viability at 10 µM [5, 19] | viability at 10 µM [6, 20] | viability at 10 µM [7, 21] | viability at 10 µM [8, 22] | inhibition effect on different cancer cell lines [9] | viability at 10 µM [10] | viability at 10 µM [11, 23] | viability at 10 µM [12, 24] | viability at 10 µM [13] | viability at 10 µM [14, 25] | further results |
| --- | --- | --- | --- | --- | --- | --- | --- | --- | --- | --- | --- | --- | --- | --- | --- |
| CCn1nc(C(=O)O)c(=O)c2cc3c(cc21)OCO3 [Cinoxacin] | 68.3% | 87% | 83.2% | 71.5% | 98.9% | 69.7% | 64% | 74.2% | significant inhibition effect | 97% | 109% | 67.1% | 66.2% | 74.9% |  |
| CC(C)(O/N=C(\C(=O)N[C@@H]1C(=O)N2C(C(=O)[O-])=C(C[n+]3ccccc3)CS[C@H]12)c1csc(N)n1)C(=O)O [Ceftazidime Pentahydrate] |  |  |  |  |  |  |  |  | significant inhibition effect | 72.5% |  |  | 89.5% |  | viability at 10 µM ([1]; drug 10 μM, 72 hours, WST-1, OD450 nm, read-out: cell viability (survival rate), A375): 87.7%; viability at 10 µM ([2]; drug 10 μM, 72 hours, WST-1, OD450 nm, read-out: cell viability (survival rate), PC3): 38.5%; viability at 10 µM ([3]; drug 10 μM, 72 hours, WST-1, OD450 nm, read-out: cell viability (survival rate), AGS): 53.5%; viability at 10 µM ([4]; drug 10 μM, 72 hours, WST-1, OD450 nm, read-out: cell viability (survival rate), TSGH): 78.7%; viability at 10 µM ([5]; drug 10 μM, 72 hours, WST-1, OD450 nm, read-out: cell viability (survival rate), MKN-45): 94.6%; viability at 10 µM ([6]; drug 10 μM, 72 hours, WST-1, OD450 nm, read-out: cell viability (survival rate), HepG2): 93.6%; viability at 10 µM ([7]; drug 10 μM, 72 hours, WST-1, OD450 nm, read-out: cell viability (survival rate), HeLa): 70%; viability at 10 µM ([8]; drug 10 μM, 72 hours, WST-1, OD450 nm, read-out: cell viability (survival rate), A549): 26.7%; viability at 10 µM ([11]; drug 10 μM, 72 hours, WST-1, OD450 nm, read-out: cell viability (survival rate), HL-60): 89.3%; viability at 10 µM ([12]; drug 10 μM, 72 hours, WST-1, OD450 nm, read-out: cell viability (survival rate), H1650): 58.5%; viability at 10 µM ([14]; drug 10 μM, 72 hours, WST-1, OD450 nm, read-out: cell viability (survival rate), MCF7): 35.5% |
| CCn1cc(C(=O)O)c(=O)c2cnc(N3CCCC3)nc21 [Piromidic Acid] | 86.7% | 107% | 85.9% | 90.5% | 100% | 73.8% | 95.5% | 80.5% | significant inhibition effect | 95.2% | 95.2% | 67.2% | 89.8% | 99.5% |  |
